Experimental data from patent US8871753B2, “Macrocyclic compounds and their use as kinase inhibitors” (Incyte Corporation, priority 2008, dated 2014).
Read-outs that look alike come from different tables or passages of the source.

Tests used:
Assay type in all cases: biochemical
[1] = molecular target: T1, Recombinant Human Anaplastic Lymphoma Kinase (Homo sapiens, UniProt Q9UM73); assay: ALK HTRF kinase assay; details: compound at 500 nM or 1 mM; 90 μM ATP
T1 construct: purchased Invitrogen, Carlsbad, Calif
From the text: Materials: Recombinant Human Anaplastic Lymphoma Kinase was purchased from Invitrogen, Carlsbad, Calif. Peptide substrate (Biotin-[…]-amide) was custom synthesized at EZBiolab, Westfield, Ind. Streptavidin conjugated SureLight-Allophycocyania and LANCE Eu-W1024 labeled anti-phosphotyrosine antibody were from Perkin-Elmer, Boston, Mass. Microplates were from Corning Inc., Acton, Mass. All other reagents were from Sigma, St. Louis, Mo.
Plates were read in Fusion α-FP instrument (Perkin-Elmer). […] Signal=Bottom+(Top−Bottom)/(1+10^((Log(IC50)−Log [I])*Hill Slope) Bottom and Top refer to the post and pre-transition baselines, respectively.

[2] = molecular target: T2, human JAK2 (a.a. 828-1132) (Homo sapiens, UniProt O60674); assay: In vitro JAK kinase assay (HTRF, phosphorylation of a biotinylated peptide), JAK2
T2 construct: JAK2 (a.a. 828-1132); His tag (N); made in house; host or cells: insect cells (baculovirus)
Outline: (§1)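 Kinase reactions ran at room temperature for 1 h with ATP matched per isoform (JAK1 90 μM, JAK2 30 μM, JAK3 3 μM). After an EDTA stop, the phosphorylated biotin-peptide was read by HTRF using Eu-Py20 and SA-APC after 40 min binding.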

[3] = molecular target: T3, human JAK1 (a.a. 837-1142) (Homo sapiens, UniProt P23458); assay: In vitro JAK kinase assay (HTRF, phosphorylation of a biotinylated peptide), JAK1; details: read-out: JAK1 IC50
T3 construct: human JAK1 (a.a. 837-1142); His tag (N); made in house; host or cells: insect cells (baculovirus)
Outline: as §1

TYK2 = TYK2 (Homo sapiens, UniProt P29597); assay: TYK2 kinase inhibition (Table A1); details: Table D1
[4] = molecular target: T4, human JAK3 (a.a. 781-1124) (Homo sapiens, UniProt P52333); assay: In vitro JAK kinase assay (HTRF, phosphorylation of a biotinylated peptide), JAK3; details: Table D1
T4 construct: JAK3 (a.a. 781-1124); His tag (N); made in house; host or cells: insect cells (baculovirus)
Outline: as §1

[5] = method AA1 (30 μM ATP) or AA2 (1000 μM ATP), not stated per value
[6] = method AA1 (90 μM ATP) or AA2 (1000 μM ATP), not stated per value

Sequence of TYK2 (P29597 whole entry): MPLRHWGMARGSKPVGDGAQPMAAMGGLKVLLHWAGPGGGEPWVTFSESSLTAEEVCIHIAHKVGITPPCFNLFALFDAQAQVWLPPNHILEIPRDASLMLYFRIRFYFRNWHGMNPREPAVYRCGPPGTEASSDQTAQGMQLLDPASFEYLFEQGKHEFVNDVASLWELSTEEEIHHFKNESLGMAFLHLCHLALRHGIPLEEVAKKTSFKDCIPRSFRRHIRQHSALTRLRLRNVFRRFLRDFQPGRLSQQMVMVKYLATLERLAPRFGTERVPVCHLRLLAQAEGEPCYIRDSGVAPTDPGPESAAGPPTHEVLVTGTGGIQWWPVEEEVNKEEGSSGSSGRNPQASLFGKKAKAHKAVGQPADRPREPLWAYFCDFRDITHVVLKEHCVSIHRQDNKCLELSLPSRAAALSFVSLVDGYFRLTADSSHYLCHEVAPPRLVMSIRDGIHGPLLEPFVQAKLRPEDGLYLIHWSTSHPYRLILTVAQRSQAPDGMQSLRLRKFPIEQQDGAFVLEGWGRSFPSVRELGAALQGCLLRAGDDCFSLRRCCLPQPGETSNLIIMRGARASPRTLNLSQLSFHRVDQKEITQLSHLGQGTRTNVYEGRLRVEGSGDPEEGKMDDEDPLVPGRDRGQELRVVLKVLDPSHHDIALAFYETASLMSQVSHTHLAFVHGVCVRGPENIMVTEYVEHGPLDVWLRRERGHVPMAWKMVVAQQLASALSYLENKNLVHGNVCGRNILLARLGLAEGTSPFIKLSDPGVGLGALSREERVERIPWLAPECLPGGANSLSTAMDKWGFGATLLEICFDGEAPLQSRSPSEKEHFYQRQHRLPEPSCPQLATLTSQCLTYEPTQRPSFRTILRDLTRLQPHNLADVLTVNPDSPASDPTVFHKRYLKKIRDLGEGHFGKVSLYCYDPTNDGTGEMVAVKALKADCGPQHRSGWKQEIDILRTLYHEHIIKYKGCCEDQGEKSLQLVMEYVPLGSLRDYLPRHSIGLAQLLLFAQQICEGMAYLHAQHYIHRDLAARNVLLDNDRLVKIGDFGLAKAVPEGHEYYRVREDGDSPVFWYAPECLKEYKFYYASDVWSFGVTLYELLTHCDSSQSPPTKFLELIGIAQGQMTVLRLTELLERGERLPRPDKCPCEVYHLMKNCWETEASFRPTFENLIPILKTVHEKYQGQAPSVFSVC
T3 sequence (P23458 849-1154): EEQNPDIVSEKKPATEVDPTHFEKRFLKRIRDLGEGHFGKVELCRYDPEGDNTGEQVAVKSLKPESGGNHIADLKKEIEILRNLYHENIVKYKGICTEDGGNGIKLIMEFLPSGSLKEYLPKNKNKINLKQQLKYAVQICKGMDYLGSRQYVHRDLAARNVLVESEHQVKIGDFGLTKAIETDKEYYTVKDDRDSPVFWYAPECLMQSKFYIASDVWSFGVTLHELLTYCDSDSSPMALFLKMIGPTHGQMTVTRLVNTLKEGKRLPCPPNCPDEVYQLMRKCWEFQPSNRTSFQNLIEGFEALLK
T4 sequence (P52333 781-1124): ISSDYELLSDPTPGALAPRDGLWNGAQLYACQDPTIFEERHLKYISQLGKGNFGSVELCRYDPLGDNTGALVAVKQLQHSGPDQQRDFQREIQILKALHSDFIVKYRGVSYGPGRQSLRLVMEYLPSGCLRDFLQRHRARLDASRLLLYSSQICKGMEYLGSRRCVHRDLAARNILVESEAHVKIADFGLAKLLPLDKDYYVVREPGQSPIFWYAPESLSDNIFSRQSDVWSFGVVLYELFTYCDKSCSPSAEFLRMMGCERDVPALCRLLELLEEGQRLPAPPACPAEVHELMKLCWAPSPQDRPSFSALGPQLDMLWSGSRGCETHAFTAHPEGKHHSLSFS
T1 sequence (Q9UM73 19-1620): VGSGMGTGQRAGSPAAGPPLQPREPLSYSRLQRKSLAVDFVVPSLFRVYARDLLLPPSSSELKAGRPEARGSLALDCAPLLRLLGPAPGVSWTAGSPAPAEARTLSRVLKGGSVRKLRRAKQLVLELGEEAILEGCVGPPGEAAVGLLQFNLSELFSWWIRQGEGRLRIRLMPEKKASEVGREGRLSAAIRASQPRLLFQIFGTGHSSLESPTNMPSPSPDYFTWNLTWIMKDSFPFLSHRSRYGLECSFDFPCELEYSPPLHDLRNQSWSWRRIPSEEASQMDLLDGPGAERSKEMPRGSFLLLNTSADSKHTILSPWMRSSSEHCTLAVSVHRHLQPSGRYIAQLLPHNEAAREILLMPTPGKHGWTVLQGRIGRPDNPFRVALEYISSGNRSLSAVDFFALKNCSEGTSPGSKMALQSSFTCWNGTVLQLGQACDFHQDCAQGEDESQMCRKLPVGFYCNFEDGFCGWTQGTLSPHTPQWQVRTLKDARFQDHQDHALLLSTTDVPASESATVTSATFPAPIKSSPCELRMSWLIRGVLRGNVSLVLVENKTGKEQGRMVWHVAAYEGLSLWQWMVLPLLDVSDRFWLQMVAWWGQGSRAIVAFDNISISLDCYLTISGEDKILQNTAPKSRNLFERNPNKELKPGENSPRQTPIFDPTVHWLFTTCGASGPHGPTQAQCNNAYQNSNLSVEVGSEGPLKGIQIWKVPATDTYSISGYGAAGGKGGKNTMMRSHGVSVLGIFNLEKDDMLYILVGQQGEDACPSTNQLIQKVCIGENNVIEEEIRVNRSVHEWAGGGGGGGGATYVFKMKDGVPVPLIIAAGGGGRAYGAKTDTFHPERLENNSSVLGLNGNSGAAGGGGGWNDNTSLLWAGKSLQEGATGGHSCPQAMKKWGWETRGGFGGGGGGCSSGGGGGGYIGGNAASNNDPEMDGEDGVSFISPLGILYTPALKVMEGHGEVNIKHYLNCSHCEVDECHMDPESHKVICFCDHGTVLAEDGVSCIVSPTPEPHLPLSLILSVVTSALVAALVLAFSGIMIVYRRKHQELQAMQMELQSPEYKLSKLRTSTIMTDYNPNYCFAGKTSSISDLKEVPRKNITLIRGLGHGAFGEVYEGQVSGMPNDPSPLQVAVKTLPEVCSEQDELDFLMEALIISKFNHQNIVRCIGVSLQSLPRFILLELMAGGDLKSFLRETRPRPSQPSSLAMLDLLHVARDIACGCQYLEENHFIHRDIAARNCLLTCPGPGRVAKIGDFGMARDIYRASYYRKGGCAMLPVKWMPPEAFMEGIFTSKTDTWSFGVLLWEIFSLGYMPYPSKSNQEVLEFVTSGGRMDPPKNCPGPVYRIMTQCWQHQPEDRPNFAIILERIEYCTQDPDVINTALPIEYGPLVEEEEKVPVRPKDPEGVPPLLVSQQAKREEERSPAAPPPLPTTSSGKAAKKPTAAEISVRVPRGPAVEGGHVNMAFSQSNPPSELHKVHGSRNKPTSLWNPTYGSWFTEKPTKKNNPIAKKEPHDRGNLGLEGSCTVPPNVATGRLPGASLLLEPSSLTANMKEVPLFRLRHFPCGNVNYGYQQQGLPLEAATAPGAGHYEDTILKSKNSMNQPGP
T2 sequence (O60674 828-1132): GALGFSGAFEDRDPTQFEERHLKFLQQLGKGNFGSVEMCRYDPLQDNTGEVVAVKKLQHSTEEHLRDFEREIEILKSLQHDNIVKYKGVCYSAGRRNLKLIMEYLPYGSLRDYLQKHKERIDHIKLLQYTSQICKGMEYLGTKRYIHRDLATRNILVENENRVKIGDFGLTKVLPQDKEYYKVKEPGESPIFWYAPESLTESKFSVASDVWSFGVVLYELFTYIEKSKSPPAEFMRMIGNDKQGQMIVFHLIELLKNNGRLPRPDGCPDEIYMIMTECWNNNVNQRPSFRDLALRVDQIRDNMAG

Row | Compound | ALK % of inhibition at a concentration of 500 nM or 1 mM [1] [%] | IC50 [2, 5] [nM] | IC50 [3, 6] [nM] | IC50 ([2]; Table D1) [nM] | IC50 ([3]; Table D1) [nM] | IC50 (TYK2) [nM] | IC50 [4] [nM]
1 | O=C(CC1CCN(c2nccs2)CC1)Nc1ccc2cc1CCc1cncc(c1)Nc1ncc(Cl)c(n1)N2 [Example A159, N-[6-Chloro-2,4,8,18,22-pentaazatetracyclo[14.3.1.1(3,7).1(9,13)]docosa-1(20),3(22),4,6,9(21),10,12,16,18-nonaen-12-yl]-2-[1-(1,3-thiazol-2-yl)piperidin-4-yl]acetamide tris(trifluoroacetate)] | 24 | 87 | 3.6 | – | – | – | –
2 | Cc1occc1C(=O)N1CCC(CC(=O)Nc2ccc3cc2CCc2cncc(c2)Nc2ncc(Cl)c(n2)N3)CC1 [Example A160, N-[6-Chloro-2,4,8,18,22-pentaazatetracyclo[14.3.1.1(3,7).1(9,13)]docosa-1(20),3(22),4,6,9(21),10,12,16,18-nonaen-12-yl]-2-[1-(2-methyl-3-furoyl)piperidin-4-yl]acetamide bis(trifluoroacetate)] | 19 | 271 | 5 | – | – | – | –
3 | Cc1ccoc1C(=O)N1CCC(CC(=O)Nc2ccc3cc2CCc2cncc(c2)Nc2ncc(Cl)c(n2)N3)CC1 [Example A161, N-[6-Chloro-2,4,8,18,22-pentaazatetracyclo[14.3.1.1(3,7).1(9,13)]docosa-1(20),3(22),4,6,9(21),10,12,16,18-nonaen-12-yl]-2-[1-(3-methyl-2-furoyl)piperidin-4-yl]acetamide bis(trifluoroacetate)] | 27 | 300 | 15 | – | – | – | –
4 | O=C(CC1CCN(C(=O)c2ccns2)CC1)Nc1ccc2cc1CCc1cncc(c1)Nc1ncc(Cl)c(n1)N2 [Example A168, N-[6-Chloro-2,4,8,18,22-pentaazatetracyclo[14.3.1.1(3,7).1(9,13)]docosa-1(20),3(22),4,6,9(21),10,12,16,18-nonaen-12-yl]-2-[1-(isothiazol-5-ylcarbonyl)piperidin-4-yl]acetamide bis(trifluoroacetate)] | 27 | – | 22 | – | – | – | –
5 | O=C(COc1ccc2cc1CCc1cncc(c1)Nc1ncc(Cl)c(n1)N2)N1CCN(C(=O)c2ccno2)CC1 [Example D260, 6-Chloro-12-{2-[4-(isoxazol-5-ylcarbonyl)piperazin-1-yl]-2-oxoethoxy}-2,4,8,18,22-pentaazatetracyclo[14.3.1.1(3,7).1(9,13)]docosa-1(20),3(22),4,6,9(21),10,12,16,18-nonaene bis(trifluoroacetate)] | – | – | – | 22 | 15 | 288 | > 400
6 | COC(=O)N1CCN(C(=O)COc2ccc3cc2CCc2cncc(c2)Nc2ncc(Cl)c(n2)N3)CC1 [Example D261, Methyl 4-({[6-chloro-2,4,8,18,22-pentaazatetracyclo[14.3.1.1(3,7).1(9,13)]docosa-1(20),3(22),4,6,9(21),10,12,16,18-nonaen-12-yl]oxy}acetyl)piperazine-1-carboxylate bis(trifluoroacetate)] | – | – | – | 106 | 31 | > 400 | > 400
7 | COCC(=O)N1CCN(C(=O)COc2ccc3cc2CCc2cncc(c2)Nc2ncc(Cl)c(n2)N3)CC1 [Example D262, 6-Chloro-12-{2-[4-(methoxyacetyl)piperazin-1-yl]-2-oxoethoxy}-2,4,8,18,22-pentaazatetracyclo[14.3.1.1(3,7).1(9,13)]docosa-1(20),3(22),4,6,9(21),10,12,16,18-nonaene bis(trifluoroacetate)] | – | – | – | > 400 | 150 | > 400 | > 400
8 | CCS(=O)(=O)N1CCN(C(=O)COc2ccc3cc2CCc2cncc(c2)Nc2ncc(Cl)c(n2)N3)CC1 [Example D263, 6-Chloro-12-{2-[4-(ethylsulfonyl)piperazin-1-yl]-2-oxoethoxy}-2,4,8,18,22-pentaazatetracyclo[14.3.1.1(3,7).1(9,13)]docosa-1(20),3(22),4,6,9(21),10,12,16,18-nonaene bis(trifluoroacetate)] | – | – | – | 180 | 80 | > 400 | > 400
9 | O=C(COc1ccc2cc1CCc1cncc(c1)Nc1ncc(Cl)c(n1)N2)N1CCN(C(=O)Nc2ccccc2)CC1 [Example D264, 4-({[6-Chloro-2,4,8,18,22-pentaazatetracyclo[14.3.1.1(3,7).1(9,13)]docosa-1(20),3(22),4,6,9(21),10,12,16,18-nonaen-12-yl]oxy}acetyl)-N-phenylpiperazine-1-carboxamide bis(trifluoroacetate)] | – | – | – | 22 | 6.1 | 300 | > 400
10 | CNC(=O)N1CCN(C(=O)COc2ccc3cc2CCc2cncc(c2)Nc2ncc(Cl)c(n2)N3)CC1 [Example D265, 4-({[6-Chloro-2,4,8,18,22-pentaazatetracyclo[14.3.1.1(3,7).1(9,13)]docosa-1(20),3(22),4,6,9(21),10,12,16,18-nonaen-12-yl]oxy}acetyl)-N-methylpiperazine-1-carboxamide bis(trifluoroacetate)] | – | – | – | 235 | 34 | > 400 | > 400
11 | Cc1cc(C(=O)N2CCN(C(=O)COc3ccc4cc3CCc3cncc(c3)Nc3ncc(Cl)c(n3)N4)CC2)n[nH]1 [Example D266, 6-Chloro-12-(2-{4-[(5-methyl-1H-pyrazol-3-yl)carbonyl]piperazin-1-yl}-2-oxoethoxy)-2,4,8,18,22-pentaazatetracyclo[14.3.1.1(3,7).1(9,13)]docosa-1(20),3(22),4,6,9(21),10,12,16,18-nonaene tris(trifluoroacetate)] | – | – | – | 21 | 31 | > 400 | > 400
12 | N#CC1(C(=O)N2CCN(C(=O)COc3ccc4cc3CCc3cncc(c3)Nc3ncc(Cl)c(n3)N4)CC2)CC1 [Example D267, 1-{[4-({[6-Chloro-2,4,8,18,22-pentaazatetracyclo[14.3.1.1(3,7).1(9,13)]docosa-1(20),3(22),4,6,9(21),10,12,16,18-nonaen-12-yl]oxy}acetyl)piperazin-1-yl]carbonyl}cyclopropanecarbonitrile bis(trifluoroacetate)] | – | – | – | 300 | 84 | > 400 | > 400
13 | NS(=O)(=O)N1CCN(C(=O)COc2ccc3cc2CCc2cncc(c2)Nc2ncc(Cl)c(n2)N3)CC1 [Example D268, 4-({[6-Chloro-2,4,8,18,22-pentaazatetracyclo[14.3.1.1(3,7).1(9,13)]docosa-1(20),3(22),4,6,9(21),10,12,16,18-nonaen-12-yl]oxy}acetyl)piperazine-1-sulfonamide bis(trifluoroacetate)] | – | – | – | 36 | 15 | 49 | > 400
14 | N#CCC(=O)N1CCN(C(=O)COc2ccc3cc2CCc2cncc(c2)Nc2ncc(Cl)c(n2)N3)CC1 [Example D269, 3-[4-({[6-Chloro-2,4,8,18,22-pentaazatetracyclo[14.3.1.1(3,7).1(9,13)]docosa-1(20),3(22),4,6,9(21),10,12,16,18-nonaen-12-yl]oxy}acetyl)piperazin-1-yl]-3-oxopropanenitrile bis(trifluoroacetate)] | – | – | – | 226 | 29 | > 400 | > 400
15 | NC(=O)N1CCN(C(=O)COc2ccc3cc2CCc2cncc(c2)Nc2ncc(Cl)c(n2)N3)CC1 [Example D270, 4-({[6-Chloro-2,4,8,18,22-pentaazatetracyclo[14.3.1.1(3,7).1(9,13)]docosa-1(20),3(22),4,6,9(21),10,12,16,18-nonaen-12-yl]oxy}acetyl)piperazine-1-carboxamide bis(trifluoroacetate)] | – | – | – | 80 | 23 | 265 | > 400
16 | O=C(COc1ccc2cc1CCc1cncc(c1)Nc1ncc(Cl)c(n1)N2)N1CCN(C(=O)C2CCOC2)CC1 (stereo not drawn) [Example D271, 6-Chloro-12-{2-oxo-2-[4-(tetrahydrofuran-3-ylcarbonyl)piperazin-1-yl]ethoxy}-2,4,8,18,22-pentaazatetracyclo[14.3.1.1(3,7).1(9,13)]docosa-1(20),3(22),4,6,9(21),10,12,16,18-nonaene bis(trifluoroacetate)] | – | – | – | > 400 | 75 | > 400 | > 400
17 | O=C(COc1ccc2cc1CCc1cncc(c1)Nc1ncc(Cl)c(n1)N2)N1CCN(C(=O)C2CCCO2)CC1 (stereo not drawn) [Example D272, 6-Chloro-12-{2-oxo-2-[4-(tetrahydrofuran-2-ylcarbonyl)piperazin-1-yl]ethoxy}-2,4,8,18,22-pentaazatetracyclo[14.3.1.1(3,7).1(9,13)]docosa-1(20),3(22),4,6,9(21),10,12,16,18-nonaene bis(trifluoroacetate)] | – | – | – | 288 | 38 | > 400 | > 400
